Results reported in BindingDB's records for doi:10.1016/j.bmcl.2005.05.127 (Wyeth Research, 2005).

Experiments:
[1] = Inhibitory concentration against human p21 deficient cell (p21-/-) proliferation
[2] = Inhibitory concentration against human p21 proficient cell (p21+/+) proliferation
[3] = Inhibitory concentration against human p21 […] cell (p21+/+) proliferation

Structure (SMILES): COc1ccc(-c2nc3sc4c(c3c(=O)[nH]2)CCCC4)cc1OC
- IC50 [1]: > 20 µM
- IC50 [2]: > 20 µM

Structure (SMILES): O=C(c1cccs1)c1cnn2c(-c3cccc(NC(=O)C4CC4)c3)ccnc12
- IC50 [3]: 12 µM

Structure (SMILES): COc1cc(-c2nc3sc4c(c3c(=O)[nH]2)CCCC4)cc(OC)c1OC
- IC50 [3]: > 20 µM
